The record followed here is BindingDB's records for doi:10.1016/s0014-2999(02)01314-6 (Takeda Chemical Industries, 2002).

For the assay, the target named is Melanin-concentrating hormone receptor 1 (Rattus norvegicus, UniProt P97639).

pKi: −log10 of the molar value.

Chain of Melanin-concentrating hormone receptor 1 (P97639 whole entry): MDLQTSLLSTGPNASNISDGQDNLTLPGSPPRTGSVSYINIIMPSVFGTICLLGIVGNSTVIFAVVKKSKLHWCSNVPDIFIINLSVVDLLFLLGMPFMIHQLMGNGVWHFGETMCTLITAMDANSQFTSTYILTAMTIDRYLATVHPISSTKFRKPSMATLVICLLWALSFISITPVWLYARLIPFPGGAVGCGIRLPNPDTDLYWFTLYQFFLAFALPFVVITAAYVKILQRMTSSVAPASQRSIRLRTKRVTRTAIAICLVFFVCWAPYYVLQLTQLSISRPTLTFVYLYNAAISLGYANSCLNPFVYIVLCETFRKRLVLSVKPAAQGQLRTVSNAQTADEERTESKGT

The term pKi denotes the Ki on a negative log10 scale, so that one unit is a factor of ten. `CN(C)CC1CCc2cc(NC(=O)c3ccc(-c4ccc(F)cc4)cc3)ccc2C1` (stereo unspecified) [4''-Fluoro-biphenyl-4-carboxylic acid (6-dimethylaminomethyl-5,6,7,8-tetrahydro-naphthalen-2-yl)-amide] showed a pKi of 8.07.
